In ChEMBL document CHEMBL5465560, “Selectivity Literature for EUbOPEN Chemogenomic Library” (2024):
One block for each molecule: values may come before it.

What was measured:
[1] = tested on: Hepatocyte growth factor receptor (Homo sapiens), P08581 [D1228H]; test: Selectivity interaction (LanthaScreen Eu Kinase Binding Assay) EUB0001632a MET; details: at 10 µM
[2] = molecular target: T1, Phosphatidylinositol 4,5-bisphosphate 3-kinase catalytic subunit delta isoform (Homo sapiens) (UniProt O00329); test: Selectivity interaction (KinomeScan (DiscoverX)) EUB0000877a PIK3CD; details: at 10 µM
T1 sequence (whole entry): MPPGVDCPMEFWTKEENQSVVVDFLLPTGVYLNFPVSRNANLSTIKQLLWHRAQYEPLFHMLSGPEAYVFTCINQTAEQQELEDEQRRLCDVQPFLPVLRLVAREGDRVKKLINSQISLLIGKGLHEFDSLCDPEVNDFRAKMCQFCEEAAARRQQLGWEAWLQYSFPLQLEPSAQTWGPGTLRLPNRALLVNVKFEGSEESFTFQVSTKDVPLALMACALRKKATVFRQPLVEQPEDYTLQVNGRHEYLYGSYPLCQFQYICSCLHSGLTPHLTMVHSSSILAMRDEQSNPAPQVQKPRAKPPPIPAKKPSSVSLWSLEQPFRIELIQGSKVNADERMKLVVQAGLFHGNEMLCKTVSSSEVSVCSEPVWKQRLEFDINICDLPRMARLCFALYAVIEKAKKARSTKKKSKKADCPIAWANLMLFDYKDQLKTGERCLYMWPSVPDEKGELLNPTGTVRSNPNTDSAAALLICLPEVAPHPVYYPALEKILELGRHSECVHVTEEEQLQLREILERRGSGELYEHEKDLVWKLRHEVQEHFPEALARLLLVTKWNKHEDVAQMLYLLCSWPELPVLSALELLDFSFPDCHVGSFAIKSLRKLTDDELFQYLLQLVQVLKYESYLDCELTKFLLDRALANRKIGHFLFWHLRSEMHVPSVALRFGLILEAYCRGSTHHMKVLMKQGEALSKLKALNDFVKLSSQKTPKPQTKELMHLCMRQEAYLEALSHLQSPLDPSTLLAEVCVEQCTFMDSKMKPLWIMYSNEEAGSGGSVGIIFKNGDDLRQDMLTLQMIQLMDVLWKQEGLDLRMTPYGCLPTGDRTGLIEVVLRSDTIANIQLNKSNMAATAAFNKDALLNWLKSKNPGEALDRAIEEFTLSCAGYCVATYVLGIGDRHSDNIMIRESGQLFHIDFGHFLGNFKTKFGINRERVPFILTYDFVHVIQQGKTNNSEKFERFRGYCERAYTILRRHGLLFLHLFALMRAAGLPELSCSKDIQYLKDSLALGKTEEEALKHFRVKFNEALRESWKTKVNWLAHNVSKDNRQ

[3] = molecular target: cAMP-dependent protein kinase catalytic subunit alpha (Homo sapiens, UniProt P17612); test: Selectivity interaction (Kinase panel (literature)) EUB0001199aCl PRKACA; details: at 1 µM
[4] = molecular target: T2, Serine/threonine-protein kinase greatwall (Homo sapiens) (UniProt Q96GX5); test: Selectivity interaction (ActivX KiNativ screen (kinase selectivity in THP-1 cell lysates)) EUB0000639a MASTL; type: subcellular; details: lysate, at 0.01 µM
T2 sequence (whole entry): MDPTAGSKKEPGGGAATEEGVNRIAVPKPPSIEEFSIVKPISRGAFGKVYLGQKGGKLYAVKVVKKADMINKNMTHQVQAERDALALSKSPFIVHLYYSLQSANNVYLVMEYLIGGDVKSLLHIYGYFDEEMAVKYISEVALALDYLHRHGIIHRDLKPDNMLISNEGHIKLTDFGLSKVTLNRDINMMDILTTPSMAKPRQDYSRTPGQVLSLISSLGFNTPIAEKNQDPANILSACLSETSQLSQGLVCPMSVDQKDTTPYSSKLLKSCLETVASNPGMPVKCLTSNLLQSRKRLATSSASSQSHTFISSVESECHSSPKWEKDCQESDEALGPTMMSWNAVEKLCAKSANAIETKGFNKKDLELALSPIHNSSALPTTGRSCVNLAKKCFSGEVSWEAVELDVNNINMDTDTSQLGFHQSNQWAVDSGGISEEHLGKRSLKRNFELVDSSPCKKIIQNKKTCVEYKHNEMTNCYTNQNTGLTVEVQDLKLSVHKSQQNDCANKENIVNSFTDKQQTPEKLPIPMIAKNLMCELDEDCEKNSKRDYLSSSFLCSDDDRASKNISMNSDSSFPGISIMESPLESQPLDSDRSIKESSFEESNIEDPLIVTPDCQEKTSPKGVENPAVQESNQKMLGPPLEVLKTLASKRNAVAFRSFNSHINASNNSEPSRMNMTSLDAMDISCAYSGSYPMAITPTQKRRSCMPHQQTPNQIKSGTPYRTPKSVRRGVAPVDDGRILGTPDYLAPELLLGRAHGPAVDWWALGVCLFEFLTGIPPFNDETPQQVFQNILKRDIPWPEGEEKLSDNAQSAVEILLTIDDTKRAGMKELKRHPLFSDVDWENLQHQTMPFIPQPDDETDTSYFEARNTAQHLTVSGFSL

[5] = molecular target: Rho-associated protein kinase 2 (Homo sapiens, UniProt O75116); test: Selectivity interaction (ProQinase) EUB0000171b ROCK2
Rho-associated protein kinase 2, sequence (O75116 whole entry, looked up): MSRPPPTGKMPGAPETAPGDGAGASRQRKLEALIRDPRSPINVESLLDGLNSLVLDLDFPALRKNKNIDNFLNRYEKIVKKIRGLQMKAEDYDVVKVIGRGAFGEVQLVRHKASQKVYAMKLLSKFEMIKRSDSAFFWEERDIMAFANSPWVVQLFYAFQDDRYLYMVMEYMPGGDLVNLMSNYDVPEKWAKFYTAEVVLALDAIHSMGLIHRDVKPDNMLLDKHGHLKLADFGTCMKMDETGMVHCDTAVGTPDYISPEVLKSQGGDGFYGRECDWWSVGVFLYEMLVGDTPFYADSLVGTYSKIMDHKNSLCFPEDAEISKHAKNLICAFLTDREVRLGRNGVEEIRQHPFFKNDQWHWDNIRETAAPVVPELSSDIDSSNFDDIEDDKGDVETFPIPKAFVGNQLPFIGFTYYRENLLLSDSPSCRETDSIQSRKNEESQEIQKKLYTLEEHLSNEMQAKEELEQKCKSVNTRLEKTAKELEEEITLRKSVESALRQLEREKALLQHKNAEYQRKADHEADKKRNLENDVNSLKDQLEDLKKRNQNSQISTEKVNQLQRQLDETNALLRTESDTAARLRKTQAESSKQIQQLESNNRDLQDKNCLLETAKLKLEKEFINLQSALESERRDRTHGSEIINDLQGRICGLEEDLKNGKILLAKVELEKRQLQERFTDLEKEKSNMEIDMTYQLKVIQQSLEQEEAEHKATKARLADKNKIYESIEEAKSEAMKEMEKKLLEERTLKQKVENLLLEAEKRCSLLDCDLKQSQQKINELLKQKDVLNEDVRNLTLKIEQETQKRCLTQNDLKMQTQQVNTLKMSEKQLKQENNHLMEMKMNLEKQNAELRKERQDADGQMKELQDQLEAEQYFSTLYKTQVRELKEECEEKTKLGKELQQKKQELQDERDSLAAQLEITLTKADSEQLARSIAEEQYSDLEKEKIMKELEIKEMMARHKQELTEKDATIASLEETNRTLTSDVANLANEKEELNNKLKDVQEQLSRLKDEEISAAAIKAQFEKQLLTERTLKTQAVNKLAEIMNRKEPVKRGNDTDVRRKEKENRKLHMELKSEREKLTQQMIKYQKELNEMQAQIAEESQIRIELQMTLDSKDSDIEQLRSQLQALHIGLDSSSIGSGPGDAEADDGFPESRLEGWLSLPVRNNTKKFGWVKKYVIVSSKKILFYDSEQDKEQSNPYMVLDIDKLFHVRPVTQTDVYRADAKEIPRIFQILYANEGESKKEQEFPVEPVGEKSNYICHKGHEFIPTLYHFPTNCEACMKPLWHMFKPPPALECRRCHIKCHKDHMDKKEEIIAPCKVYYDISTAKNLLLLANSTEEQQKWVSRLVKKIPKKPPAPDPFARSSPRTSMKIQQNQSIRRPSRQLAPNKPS

[6] = molecular target: T3, Serine/threonine-protein kinase RIO1 (Homo sapiens) (UniProt Q9BRS2); test: Selectivity interaction (Ambit KINOMEscan and KiNATiv profiling in Jurkat cells) EUB0000090b RIOK1; type: cell-based; details: at 1 µM
T3 sequence (whole entry): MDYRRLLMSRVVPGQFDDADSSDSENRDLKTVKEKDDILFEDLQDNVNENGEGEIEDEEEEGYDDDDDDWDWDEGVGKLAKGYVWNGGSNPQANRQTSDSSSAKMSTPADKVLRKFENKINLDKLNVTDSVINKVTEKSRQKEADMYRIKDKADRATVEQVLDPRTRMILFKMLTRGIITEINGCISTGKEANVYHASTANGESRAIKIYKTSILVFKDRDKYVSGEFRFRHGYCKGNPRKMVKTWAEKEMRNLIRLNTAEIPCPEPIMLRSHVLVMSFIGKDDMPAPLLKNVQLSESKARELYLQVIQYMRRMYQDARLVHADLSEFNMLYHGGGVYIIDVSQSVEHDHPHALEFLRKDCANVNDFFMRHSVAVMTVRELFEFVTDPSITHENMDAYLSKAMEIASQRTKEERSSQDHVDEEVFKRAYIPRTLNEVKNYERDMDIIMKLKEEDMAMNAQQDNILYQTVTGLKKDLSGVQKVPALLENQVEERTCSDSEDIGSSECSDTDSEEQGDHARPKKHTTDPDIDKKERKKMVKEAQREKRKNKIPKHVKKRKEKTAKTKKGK

[7] = molecular target: Ribosomal protein S6 kinase alpha-1 (Homo sapiens, UniProt Q15418); test: Selectivity interaction (Kinase panel (DSF assay)) EUB0001558a RPS6KA1
Ribosomal protein S6 kinase alpha-1, sequence (Q15418 whole entry): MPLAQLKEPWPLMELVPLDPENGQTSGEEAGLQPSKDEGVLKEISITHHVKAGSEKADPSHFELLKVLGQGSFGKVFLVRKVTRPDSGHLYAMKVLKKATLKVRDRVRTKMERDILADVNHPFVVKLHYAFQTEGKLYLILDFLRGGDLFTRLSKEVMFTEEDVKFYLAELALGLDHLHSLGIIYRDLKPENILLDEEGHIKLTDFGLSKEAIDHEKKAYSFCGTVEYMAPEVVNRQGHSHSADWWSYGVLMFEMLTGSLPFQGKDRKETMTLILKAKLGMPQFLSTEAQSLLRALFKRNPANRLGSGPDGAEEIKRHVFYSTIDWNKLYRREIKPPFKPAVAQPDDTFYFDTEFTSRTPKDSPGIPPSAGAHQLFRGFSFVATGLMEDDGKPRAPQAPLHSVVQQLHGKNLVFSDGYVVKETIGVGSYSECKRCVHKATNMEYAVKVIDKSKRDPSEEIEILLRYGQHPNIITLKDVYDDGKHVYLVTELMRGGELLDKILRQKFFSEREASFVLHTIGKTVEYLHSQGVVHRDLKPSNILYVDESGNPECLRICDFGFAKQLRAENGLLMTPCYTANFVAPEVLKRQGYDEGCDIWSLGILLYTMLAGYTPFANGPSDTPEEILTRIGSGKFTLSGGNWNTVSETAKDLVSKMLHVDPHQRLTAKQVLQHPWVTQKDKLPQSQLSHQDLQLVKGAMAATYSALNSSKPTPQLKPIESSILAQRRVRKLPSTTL

[8] = molecular target: Focal adhesion kinase 1 (Homo sapiens, UniProt Q05397); details: at 10 µM
Focal adhesion kinase 1, sequence (Q05397 2-1052 limits assumed): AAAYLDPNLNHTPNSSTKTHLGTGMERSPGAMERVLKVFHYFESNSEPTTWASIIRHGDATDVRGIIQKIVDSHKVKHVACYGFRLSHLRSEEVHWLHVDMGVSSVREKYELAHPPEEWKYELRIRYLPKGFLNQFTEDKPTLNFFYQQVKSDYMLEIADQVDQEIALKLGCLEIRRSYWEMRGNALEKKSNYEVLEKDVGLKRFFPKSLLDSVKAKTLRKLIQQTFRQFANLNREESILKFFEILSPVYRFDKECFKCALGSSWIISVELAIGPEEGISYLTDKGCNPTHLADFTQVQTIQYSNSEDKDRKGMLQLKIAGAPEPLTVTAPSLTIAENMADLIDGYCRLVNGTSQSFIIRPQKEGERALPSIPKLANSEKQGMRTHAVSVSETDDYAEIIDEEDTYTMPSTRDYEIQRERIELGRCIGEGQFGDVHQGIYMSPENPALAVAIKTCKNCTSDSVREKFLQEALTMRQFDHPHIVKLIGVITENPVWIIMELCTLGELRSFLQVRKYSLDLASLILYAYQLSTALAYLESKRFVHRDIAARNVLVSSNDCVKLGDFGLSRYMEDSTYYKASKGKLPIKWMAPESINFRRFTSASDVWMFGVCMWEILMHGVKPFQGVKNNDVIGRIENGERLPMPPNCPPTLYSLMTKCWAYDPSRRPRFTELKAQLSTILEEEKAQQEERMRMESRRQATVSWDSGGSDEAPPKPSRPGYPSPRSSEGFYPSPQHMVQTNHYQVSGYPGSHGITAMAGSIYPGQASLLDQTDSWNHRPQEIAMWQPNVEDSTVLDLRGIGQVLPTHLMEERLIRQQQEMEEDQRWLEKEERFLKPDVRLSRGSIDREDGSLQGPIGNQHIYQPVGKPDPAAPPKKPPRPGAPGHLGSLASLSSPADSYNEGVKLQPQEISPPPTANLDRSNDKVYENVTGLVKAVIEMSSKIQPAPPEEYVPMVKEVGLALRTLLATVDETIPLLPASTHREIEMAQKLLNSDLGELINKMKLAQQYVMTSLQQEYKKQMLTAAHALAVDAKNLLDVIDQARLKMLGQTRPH

Hepatocyte growth factor receptor (Homo sapiens), P08581 [D1228H], sequence (P08581 whole entry D1228H, canonical isoform): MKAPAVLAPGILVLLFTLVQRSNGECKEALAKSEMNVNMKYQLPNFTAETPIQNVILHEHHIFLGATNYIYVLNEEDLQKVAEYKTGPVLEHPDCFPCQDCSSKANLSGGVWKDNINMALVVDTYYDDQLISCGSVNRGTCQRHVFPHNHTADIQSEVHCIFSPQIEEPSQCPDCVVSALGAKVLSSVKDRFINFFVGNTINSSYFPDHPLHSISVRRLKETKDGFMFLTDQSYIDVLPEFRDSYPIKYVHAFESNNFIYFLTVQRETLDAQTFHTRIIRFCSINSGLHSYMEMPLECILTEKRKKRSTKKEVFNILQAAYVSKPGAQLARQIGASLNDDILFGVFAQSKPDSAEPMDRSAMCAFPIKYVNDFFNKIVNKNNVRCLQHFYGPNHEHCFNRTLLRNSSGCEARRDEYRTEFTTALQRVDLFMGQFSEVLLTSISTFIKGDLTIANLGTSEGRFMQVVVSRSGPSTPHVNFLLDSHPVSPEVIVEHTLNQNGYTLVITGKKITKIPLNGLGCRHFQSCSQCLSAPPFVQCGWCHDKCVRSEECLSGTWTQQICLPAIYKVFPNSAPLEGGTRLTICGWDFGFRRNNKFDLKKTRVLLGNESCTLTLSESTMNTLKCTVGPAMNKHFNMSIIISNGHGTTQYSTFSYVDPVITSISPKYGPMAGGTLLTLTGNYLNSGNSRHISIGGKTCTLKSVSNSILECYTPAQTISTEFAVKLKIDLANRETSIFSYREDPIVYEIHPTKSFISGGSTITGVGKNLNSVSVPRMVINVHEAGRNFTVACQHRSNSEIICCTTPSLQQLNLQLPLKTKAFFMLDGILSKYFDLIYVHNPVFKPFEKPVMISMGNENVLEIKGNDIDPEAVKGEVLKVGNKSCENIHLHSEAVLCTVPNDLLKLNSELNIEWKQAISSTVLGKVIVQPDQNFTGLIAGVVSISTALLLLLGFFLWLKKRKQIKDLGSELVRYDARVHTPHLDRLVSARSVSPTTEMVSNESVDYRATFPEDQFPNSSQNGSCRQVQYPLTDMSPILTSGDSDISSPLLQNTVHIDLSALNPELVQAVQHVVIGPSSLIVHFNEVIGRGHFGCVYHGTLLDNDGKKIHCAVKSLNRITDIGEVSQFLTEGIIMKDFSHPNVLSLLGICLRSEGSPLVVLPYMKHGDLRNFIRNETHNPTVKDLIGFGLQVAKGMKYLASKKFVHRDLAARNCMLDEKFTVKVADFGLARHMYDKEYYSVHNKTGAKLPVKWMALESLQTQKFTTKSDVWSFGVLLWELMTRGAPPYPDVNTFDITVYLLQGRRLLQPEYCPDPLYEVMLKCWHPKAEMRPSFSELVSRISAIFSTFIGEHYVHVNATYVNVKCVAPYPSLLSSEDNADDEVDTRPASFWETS

- % of inhibition [1]: -208%
Compound: Cn1cc(-n2cnc3c(NCc4nc5cc(Cl)c(Cl)cc5[nH]4)nc(N4CCOCC4)nc32)cn1

- % of inhibition [4]: 16.1%
Compound: CC[C@@H]1[C@H](F)C(=O)N[C@@H]1COc1nccc2cc(C(N)=O)c(OC)cc12 [ZIMLOVISERTIB]

- % of control ([5]; at 1 µM): 95%
- % of control ([5]; at 5 µM): 75%
Compound: C=CC(=O)Nc1cccc(C(=O)Nc2ccc(Nc3cc(-c4[nH]c(SC)nc4C)ccn3)cc2)c1

Second part, the molecule before the results:

Compound: CCC(=O)N1CC[C@H](Nc2ncnc3c2CN(c2cnc(OC)c(C(F)(F)F)c2)CC3)C1 [LENIOLISIB]
- % of inhibition [2]: 100%

Compound: CN1Cc2nccc(-c3cn(C)nc3-c3ccc(F)cc3)c2C1=O
- % of inhibition [3]: 2%

Compound: CN(C)C/C=C/C(=O)Nc1ccc(C(=O)N2CCCC(Nc3ncc(Cl)c(-c4c[nH]c5ccccc45)n3)C2)cc1 (centres undefined)
- % of control [6]: 100%

Compound: CC(C)(O)[C@H](F)CN1Cc2cc(NC(=O)c3cnn4cccnc34)c(N3CCOCC3)cc2C1=O
- dTM [7]: -0.2 K

Compound: Cc1cc([C@@H](C)Nc2ccccc2C(=O)O)c2nc(N3CCOCC3)cc(=O)n2c1 [AZD-6482]
- % of control [8]: 88%
